Among the test systems are NCI-H226; HCT-116; UACC-257; HCT-15; NCI-H522; TK-10; COLO 205; UACC-62; A549; CCRF-CEM; SK-OV-3; SW-620; 786-0; RXF 393; OVCAR-3; A498.
Holding throughout (test): NCI tumour cell line growth inhibition, 48 h

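48-hour exposure; five concentrations; linearly interpolated endpoints. GI50 marks 50% less growth.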 Calls of active or inactive are those of the source. No stated cut-off is given here; in the data, active = GI50 up to about 1.1 µM and inactive = higher.

As for `O=C(/C=C/c1ccccc1)Oc1cccc2cccnc12`, the GI50 in the test on NCI-H226 was 26.7 µM (inactive); in the test with HCT-116, 3.33 µM (inactive); in the test on UACC-257, 2.88 µM (inactive); in the test on HCT-15, 6.17 µM; in the test on NCI-H522 it was 1.09 µM (active); in the test with TK-10, > 84.5 µM (inactive). The GI50 with COLO 205 is 14.5 µM (inactive); in the test with UACC-62 it was 5.47 µM (inactive); in the test on A549 it was 12.9 µM (inactive); in the test on CCRF-CEM, 3.18 µM (inactive); in the test on SK-OV-3 it was 41.1 µM (inactive); with SW-620, 3.82 µM (inactive). The GI50 in the test with 786-0 was > 44.4 µM (inactive); in the test on RXF 393, 21.1 µM (inactive); with OVCAR-3, 2.96 µM (inactive).
For `O=c1c2cc(Br)ccc2[nH]c(=S)n1-c1ccccc1`, the GI50 was > 100 µM (inactive) in the test with NCI-H226; > 100 µM (inactive) in the test on HCT-116; > 100 µM (inactive) in the test on UACC-257; > 100 µM in the test with HCT-15; > 100 µM (inactive) with TK-10; > 100 µM (inactive) in the test with COLO 205. Besides, the GI50 with UACC-62, in the test with A549, in the test with CCRF-CEM, in the test with SK-OV-3, with A498 and in the test on SW-620 was > 100 µM (inactive) each time. The GI50 in the test on 786-0 and in the test with OVCAR-3 was > 100 µM (inactive) throughout.
Take `COc1ccc(-c2c(N)[n+]([O-])c3cc(C)c(C)cc3[n+]2[O-])cc1OC`: the GI50 in the test on NCI-H226 is > 100 µM (inactive); with UACC-257, 41.5 µM (inactive); in the test with HCT-15 it was 48.6 µM; in the test with NCI-H522, 17.5 µM (inactive); in the test with TK-10, > 100 µM (inactive); with COLO 205, 22.3 µM (inactive). Further, the GI50 is 41.4 µM (inactive) in the test on UACC-62; > 100 µM (inactive) in the test with A549; 78 µM (inactive) with CCRF-CEM; > 100 µM (inactive) in the test with SK-OV-3; > 100 µM (inactive) with A498; 74.8 µM (inactive) in the test with SW-620. Besides, the GI50 in the test with 786-0 and with OVCAR-3 was > 100 µM (inactive) each time.
For the compound `COC(=O)C12CC(C3CC31)C1CC12` (configuration not stated), the GI50 with NCI-H226 was > 100 µM (inactive); in the test with HCT-116 it was > 100 µM (inactive); in the test on UACC-257, > 100 µM (inactive); with HCT-15 it was > 100 µM; in the test with TK-10 it was > 100 µM (inactive); with COLO 205 it was > 100 µM (inactive). Further, the GI50 in the test with UACC-62, in the test with A549, in the test with CCRF-CEM, in the test with SK-OV-3, in the test on A498 and in the test with SW-620 was > 100 µM (inactive) in each case. The GI50 with 786-0 and in the test on OVCAR-3 was > 100 µM (inactive) each time.
As for `CC(C)(C)N/N=C(\C(=O)Nc1cccc(Cl)c1)C1C(=O)Nc2ccccc2[S+]1[O-]` (configuration not stated), the GI50 in the test with NCI-H226 was > 100 µM (inactive); in the test with HCT-116, > 10 µM (inactive); with UACC-257, > 100 µM (inactive); in the test on HCT-15, > 100 µM; in the test with NCI-H522, > 100 µM (inactive); with TK-10 it was > 100 µM (inactive). Also, the GI50 with COLO 205, with UACC-62, in the test with A549, in the test with CCRF-CEM, in the test on SK-OV-3 and with SW-620 was > 100 µM (inactive) in each case. In addition, the GI50 with 786-0, in the test on RXF 393 and in the test on OVCAR-3 was > 100 µM (inactive) in each case.
With `O=c1/c(=C/c2ccccc2[N+](=O)[O-])sc2nnc(-c3cccnc3)n12`, the GI50 in the test on NCI-H226 is > 100 µM (inactive); in the test with HCT-116, > 100 µM (inactive); in the test with UACC-257 it was > 100 µM (inactive); in the test with HCT-15, > 100 µM; in the test on TK-10 it was > 100 µM (inactive); in the test with UACC-62, > 100 µM (inactive). For the same compound, the GI50 is > 100 µM (inactive) with A549; 55.8 µM (inactive) with CCRF-CEM; > 100 µM (inactive) with A498; 7.03 µM (inactive) in the test with SW-620; > 100 µM (inactive) with 786-0; > 100 µM (inactive) in the test with RXF 393. For the same compound, the GI50 in the test on OVCAR-3 is > 100 µM (inactive).
In the case of `COc1ccc2ccc3c(c2c1)CN1CCc2cc(OC)c(OC)cc2C1C3` (configuration not stated), the GI50 was > 100 µM (inactive) in the test on NCI-H226; > 100 µM (inactive) in the test with UACC-257; > 100 µM in the test with HCT-15; > 100 µM (inactive) in the test with NCI-H522; > 100 µM (inactive) in the test on TK-10; > 100 µM (inactive) in the test with COLO 205. For the same compound, the GI50 in the test with UACC-62, in the test with CCRF-CEM, in the test on SK-OV-3, with SW-620, with 786-0 and in the test with OVCAR-3 was > 100 µM (inactive) throughout.
For the compound `[O-][S+]1c2ccccc2N=C(c2ccc3ccccc3c2)CC1C1=CC=CCC1` (configuration not stated), the GI50 with NCI-H226 is 19.4 µM (inactive); in the test on UACC-257, 18.3 µM (inactive); in the test on HCT-15 it was 16.7 µM; in the test with NCI-H522 it was 16.9 µM (inactive); in the test with TK-10, 22.2 µM (inactive); in the test on COLO 205 it was 20.5 µM (inactive). Further, the GI50 in the test with UACC-62 was 15.7 µM (inactive); in the test on A549, 26.3 µM (inactive); with CCRF-CEM, 7.19 µM (inactive); with SK-OV-3, 30.5 µM (inactive); in the test with SW-620, 18.4 µM (inactive); in the test on 786-0, 16 µM (inactive). The GI50 is 16.8 µM (inactive) in the test on RXF 393 and 16.9 µM (inactive) in the test on OVCAR-3.
For `CC(C)(C)c1cc(C(O)(C(F)(F)F)C(F)(F)F)c2c(c1)C(C(F)(F)F)(C(F)(F)F)OC(C)(C(C)(C)C)N2` (configuration not stated), the GI50 in the test with NCI-H226 is 2.27 µM (inactive); in the test with HCT-116, 3.42 µM (inactive); in the test on UACC-257 it was 5.19 µM (inactive); in the test on HCT-15, 3.83 µM; in the test on NCI-H522, 1.82 µM (inactive); in the test on TK-10, 3.27 µM (inactive). For the same compound, the GI50 is 2.05 µM (inactive) in the test with COLO 205; 3.58 µM (inactive) in the test with UACC-62; 3.59 µM (inactive) with A549; 2.25 µM (inactive) in the test on SK-OV-3; 3.68 µM (inactive) in the test with SW-620; 3.34 µM (inactive) in the test on 786-0. Further, the GI50 was 4.43 µM (inactive) in the test on RXF 393 and 0.776 µM (active) with OVCAR-3.
In the case of `O=C1CCCCCCC2=C1C(Sc1ccccc1)CC2` (configuration not stated), the GI50 is 29.5 µM (inactive) in the test on NCI-H226; 21.7 µM (inactive) in the test on HCT-116; 43.2 µM (inactive) in the test with UACC-257; 31.7 µM with HCT-15; 18.5 µM (inactive) with NCI-H522; 36.6 µM (inactive) in the test with TK-10. Moreover, the GI50 is 62.8 µM (inactive) in the test with COLO 205; 36.1 µM (inactive) in the test with UACC-62; 45.5 µM (inactive) in the test with A549; 9.08 µM (inactive) in the test with CCRF-CEM; 83 µM (inactive) in the test on SK-OV-3; 36.3 µM (inactive) in the test with SW-620. Moreover, the figures for the GI50 in the test on 786-0 and with RXF 393 were 17.7 µM (inactive) and 18.9 µM (inactive), respectively.
For the compound `O=C(CC1C(=O)Nc2ccccc2S1(=O)=O)Nc1cc(Cl)ccc1Cl` (configuration not stated), the GI50 in the test on NCI-H226 is 14.8 µM (inactive); in the test on HCT-116, 14.4 µM (inactive); in the test on UACC-257 it was 35.2 µM (inactive); in the test on HCT-15, 11.5 µM; in the test on TK-10, 20.1 µM (inactive); with UACC-62, 14.6 µM (inactive). Also, the GI50 in the test with A549 was 16.7 µM (inactive); in the test with CCRF-CEM, 17.8 µM (inactive); with A498 it was 15.8 µM (inactive); with SW-620, 19.4 µM (inactive); in the test with 786-0, 8.55 µM (inactive); with RXF 393 it was 15.8 µM (inactive). The GI50 in the test on OVCAR-3 is 14.6 µM (inactive).

Values taken from ChEMBL document CHEMBL1201862, “PubChem BioAssay data set” (2004).
